# From patent publication US10653667B2, “Drug for preventing, treating or preventing metastasis of giant cell tumor that occurs in bone or soft parts, chondrosarcoma, or osteosarcoma, local injection for arterial embolization, and artificial bone” (NIPPON CHEMIPHAR CO., LTD, priority 2013, dated 2020)
# Tests used:
# H-EMC-SS cells [1] = settings: inventors' earlier reports; cited from earlier work
# [2] = test system: cultured cells of human giant cell tumor of tendon sheath (GCTT); test: Tunel assay and caspase 3 staining of GCTT cultured cells; format: cell-based; settings: zaltoprofen 400 μM or troglitazone 200 μM, compared with control
# Description: (§1) Further, the aforementioned GCTB cultured cells of the case 1 mentioned above were cultured on chamber cover slide glass, and zaltoprofen was added at different concentrations (100, and 200 μM) 24 hours afterward. Then, 8 hours and 24 hours afterward, the cells were fixed with 4% paraformaldehyde, staining with caspase 3 and Tunel assay were performed, and presence or absence of apoptosis was analyzed. In the Tunel assay, fragmented DNAs produced in the process of apoptosis were detected by the TdT-mediated dUTP nick end labeling method (TUNEL). Observation was performed with a fluorescence microscope (BZ-9000) of Keyence, and positive images for each concentration were quantitatively observed (FIGS. 2 to 5).
# (§2) Further, in the same manner as that of Example 1, the cultured cells of human giant cell tumor of tendon sheath (GCTT) and the cultured cells of human pigmented villonodular synovitis (PVNS) were subjected to staining with caspase 3 and Tunel assay, and presence or absence of apoptosis was analyzed (FIGS. 18 to 25).
# [3] = test system: cultured cells of human pigmented villonodular synovitis (PVNS); test: Tunel assay and caspase 3 staining of PVNS cultured cells; format: cell-based; settings: zaltoprofen 400 μM or troglitazone 200 μM, compared with control
# Description: as §1, §2
# [4] = test system: cells of pigmented villonodular synovitis (PVNS); test: Fat cell differentiation of PVNS cells (HCS LipidTOX Green); format: cell-based, human; settings: zaltoprofen 400 μM, compared with control
# Description: It has been reported that PPARγ is a transcription factor indispensable for fat cell differentiation. Therefore, the GCTB cultured cells of the aforementioned case 1 were cultured on chamber cover slide glass, and when they reached confluent, zaltoprofen was added to the cells at various concentrations (10, 50, and 100 μM). From 24 hours thereafter, the cells were cultured in a fat cell differentiation-inducing medium (STREMPRO Adipogenesis Differentiation Kit, Invitrogen) for 7 to 14 days, and differentiation into fat cells was analyzed with HCS Lipid TOX Green Neutral Lipid Stain (Invitrogen) (FIGS. 8 and 9).
# It has been reported that PPARγ is a transcription factor indispensable for fat cell differentiation. Therefore, in the same manner as that of Example 3, zaltoprofen was added at a concentration of 400 μM to the cells of giant cell tumor of tendon sheath (GCTT) or cells of pigmented villonodular synovitis (PVNS), and differentiation into fat cells was analyzed (FIGS. 30 and 31). As a result, it was successfully confirmed that the positive images obtained with HCS LipidTOX Green increased in the zaltoprofen-added cells compared with the control.
# H-EMC-SS cells [5] = test: Caspase 3 staining of chondrosarcoma cell line H-EMC-SS (apoptosis); format: cell-based, human; settings: zaltoprofen 200 μM, troglitazone 100 μM or pioglitazone 200 μM, compared with control
# Description: Further, in the same manner as that of Example 1, cells of the chondrosarcoma cell line were subjected to caspase 3 staining, and presence or absence of apoptosis was analyzed (FIGS. 46 and 47).
# H-EMC-SS cells [6] = test: Suppression of cell proliferation of chondrosarcoma cell line H-EMC-SS (CCK-8); format: cell-based, human; settings: drug at various concentrations
# From the text: The H-EMC-SS cells were obtained from the Riken BioResource Center.
# The H-EMC-SS cells were obtained from the Riken BioResource Center. As the SW1353 cells, those obtained from ATCC were used.
# [7] = test system: PPARγ expression in GCTB cultured cells; test: PPARγ immunostaining of GCTB cultured cells; format: cell-based, human; settings: zaltoprofen 10, 50, 100, 200 μM; 24 hours; about 15% in the control
# Description: The GCTB cultured cells of the aforementioned case 1 were cultured on chamber cover slide glass, and 24 hours thereafter, zaltoprofen was added at various concentrations (10, 50, 100, and 200 μM). After 24 hours, the cells were fixed with 4% paraformaldehyde, and immunohistochemical staining of PPARγ was performed. The PPARγ protein was fluorescently detected by using the antibody SC-7273 of Santa Cruz Biotechnology, Inc. as the primary antibody and the rat anti-mouse IgG FITC (11-4011-85) of eBioscience as the secondary antibody. Observation was performed with a fluorescence microscope (BZ-9000) of Keyence, and positive images for each concentration were quantitatively observed (FIGS. 6 and 7).
# [8] = test system: giant cell tumor of bone (GCTB); settings: patient who had taken zaltoprofen for four weeks at 240 mg per day; inventors' earlier reports; cited from earlier work
# SW1353 cells = test: Proliferation of SW1353 cells cultured beforehand with or without GW9662; format: cell-based, human
# Description: Cells of the human chondrosarcoma cell line, SW1353, were cultured in the same manner as that of Example 1 until they became sub-confluent, then, GW9662, which is an irreversible antagonist of PPARγ, was added to the cells at a final concentration of 1 μM, and the cells were cultured for 60 minutes. Then, zaltoprofen was added to the cells at various concentrations of 100, 200, 300, and 400 μM, color development was performed with Cell. Counting Kit-8 (CCK-8, Dojindo) 72 hours thereafter, absorbance was measured at 450 nm further 3 hours thereafter, and the result was compared with the absorbance observed with adding only DMSO not dissolving GW9662 (FIG. 68).
# [9] = test system: cultured cells of pigmented villonodular synovitis (PVNS); test: Suppression of cell proliferation of PVNS cultured cells (CCK-8); format: cell-based, human; settings: PVNS cells; drug at various concentrations; CCK-8 24 hours after addition
structure (smiles),measurement,setting,value
CC(C(=O)O)c1ccc2c(c1)CC(=O)c1ccccc1S2 (stereo not shown) [zaltoprofen],apoptosis in H-EMC-SS cells,H-EMC-SS cells [1],induced apoptosis
same,Tunel-positive ratio,[2],increased
same,caspase 3-positive ratio,[2],increased
same,Tunel-positive ratio,[3],increased
same,caspase 3-positive ratio,[3],increased
same,positive images obtained with HCS LipidTOX Green (differentiation into fat cells),[4],increased
same,caspase 3-positive ratio,H-EMC-SS cells [5],increased
same,suppression of cell proliferation (absorbance at 450 nm),H-EMC-SS cells [6],cell proliferation was suppressed
same,expression of PPARγ (ratio of PPARγ-positive cells),[7],increased in a zaltoprofen concentration-dependent manner
same,giant cell tumor of bone in patient,[8],giant cell tumor of bone disappeared
same,cell proliferation-suppressing action after preincubation with GW9662,"SW1353 cells; SW1353, GW9662 1 μM, 60 minutes beforehand",markedly reduced by GW9662
same,suppression of proliferation of SW1353 cells,"SW1353 cells; zaltoprofen 100, 200, 300, 400 μM, 72 hours",suppressed by zaltoprofen in a concentration-dependent manner
same,suppression of cell proliferation (absorbance at 450 nm),[9],cell proliferation was suppressed
